Results from article PMC2700090 (Virology Journal, 2009).
Peptide text beside a SMILES is read from it.

Target: neuraminidase (NA) (Influenza A virus (A/Hong Kong/1073/99(H9N2)), UniProt Q9ICY2)
Assay: biochemical
Details: read-out: % inhibition at 1000 μM

Compound `C[C@@H](O)[C@H](NC(=O)[C@H](CCCCN)NC(=O)[C@H](CO)NC(=O)[C@H](CCCNC(=N)N)NC(=O)[C@H](Cc1ccccc1)NC(=O)[C@H](CC(=O)O)NC(=O)[C@@H](N)CC(N)=O)C(=O)O` [L-P1, NDFRSKT] (H-NDFRSKT-OH) has an inhibition at 1000 µM of ~35%.
